The values that follow come from patent US8912209B2, “Rock inhibitors” (Amakem NV, priority 2010, dated 2014).

This experiment has as its target T1, ROCKα/ROCKII (Homo sapiens, UniProt O75116).
T1 construct: purchased Upstate Biotechnology 14-451
Put plainly: ROCK inhibition, Method 2 fluorescence polarization (FP) assay, ROCK IMAP Kit. The format is biochemical. The conditions noted are these: 10 μM ATP, read-out: IC50 Meth. 2. As for the experimental part: The inhibition assays were performed with a fluorescence polarization (FP) assay using the commercially available ROCK IMAP Kit from Molecular Devices (Product ID. No. R8093), essentially in accordance with the protocol supplied by the manufacturer. […] The enzyme mix ROCKα/ROCKII was obtained from Upstate Biotechnology (Product ID No 14-451).
In summary, all compounds were screened in the wells of a 384 well plate for enzymatic inhibition with concentrations varying from 100 μM to 0.3 nM using a stepwise 3 (or 2)-fold dilution.
To perform the assay, 1 μl of a solution of the compound to be tested in DMSO (at each concentration) was added to 2 μl of a solution of the enzyme in 10 mM Tris-HCl, 10 mM MgCl2, 0.1% BSA, 0.05% NaN3, pH 7,2. The final concentration of the enzyme was 2.6 nM.
After incubating for 30 minutes at RT, 2 μl of a mixture of ATP and the protein substrate in 10 mM Tris-HCl, 10 mM MgCl2, 0.1% BSA, 0.05% NaN3, pH 7.2 was added. The final concentration of the ATP was 10 μM and final concentration of protein substrate was 0.2 μM.
After incubating for 60 minutes at RT, 12 μl of the IMAP Binding Solution (mix of the IMAP Binding Buffer A (1×) and the IMAP Binding Reagent (from the ROCK IMAP kit)) was added.
The mixture thus obtained (total volume: 17 μl) was incubated for 60 minutes at RT, upon which the fluorescence polarization was measured using an automated plate reader (Perkin Elmer, Model Envision 2100-0010 HTS) with FP filters: excitation filter FITC FP 480 and emission filters FITC FP P-pol 535 and FITC FP S-pol 535 (Perkin-Elmer). The results were fitted to a curve using the XL-Fit algorithm and IC50 values were calculated for each fitted curve, again using the XL-Fit algorithm.

T1 sequence (O75116 whole entry): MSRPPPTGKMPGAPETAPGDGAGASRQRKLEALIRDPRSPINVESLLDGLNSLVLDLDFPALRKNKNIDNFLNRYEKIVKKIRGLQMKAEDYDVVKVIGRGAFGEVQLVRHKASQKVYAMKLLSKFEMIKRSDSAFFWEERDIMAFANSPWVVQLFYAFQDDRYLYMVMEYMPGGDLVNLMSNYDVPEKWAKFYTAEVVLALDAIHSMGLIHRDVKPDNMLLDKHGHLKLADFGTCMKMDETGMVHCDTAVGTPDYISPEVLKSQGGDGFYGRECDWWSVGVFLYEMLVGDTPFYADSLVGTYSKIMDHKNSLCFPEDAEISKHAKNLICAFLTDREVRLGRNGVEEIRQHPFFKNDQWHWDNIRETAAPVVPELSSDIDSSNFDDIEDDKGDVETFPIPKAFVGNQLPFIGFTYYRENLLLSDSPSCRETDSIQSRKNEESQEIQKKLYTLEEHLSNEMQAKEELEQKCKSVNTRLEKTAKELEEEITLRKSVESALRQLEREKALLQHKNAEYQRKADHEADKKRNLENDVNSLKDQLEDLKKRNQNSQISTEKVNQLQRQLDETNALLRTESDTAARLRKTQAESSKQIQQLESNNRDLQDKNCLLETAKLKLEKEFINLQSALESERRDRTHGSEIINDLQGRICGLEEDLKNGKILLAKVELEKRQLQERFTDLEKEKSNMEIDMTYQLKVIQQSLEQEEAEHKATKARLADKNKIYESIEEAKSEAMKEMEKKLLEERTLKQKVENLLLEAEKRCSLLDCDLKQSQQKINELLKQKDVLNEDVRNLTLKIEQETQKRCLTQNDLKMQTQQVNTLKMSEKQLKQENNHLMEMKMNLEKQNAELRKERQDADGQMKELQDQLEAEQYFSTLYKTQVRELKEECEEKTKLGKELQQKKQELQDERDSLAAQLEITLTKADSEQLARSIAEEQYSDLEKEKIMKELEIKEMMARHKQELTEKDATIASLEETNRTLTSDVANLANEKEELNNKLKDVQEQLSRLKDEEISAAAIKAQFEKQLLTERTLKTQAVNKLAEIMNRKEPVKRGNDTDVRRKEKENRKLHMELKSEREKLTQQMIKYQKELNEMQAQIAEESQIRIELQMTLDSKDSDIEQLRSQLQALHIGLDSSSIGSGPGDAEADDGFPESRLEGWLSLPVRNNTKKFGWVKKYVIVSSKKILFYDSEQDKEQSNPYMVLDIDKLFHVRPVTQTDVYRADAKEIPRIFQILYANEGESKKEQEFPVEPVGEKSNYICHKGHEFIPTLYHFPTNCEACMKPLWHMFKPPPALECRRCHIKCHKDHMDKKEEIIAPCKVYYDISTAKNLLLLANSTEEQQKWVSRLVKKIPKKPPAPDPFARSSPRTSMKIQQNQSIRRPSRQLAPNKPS

As to `CC(N)c1ccc(C(=O)Nc2ccncc2)cc1-c1cccc(C(=O)OCCc2ccccn2)c1` (centres unmarked) [Compound 93, 2′-(1-Amino-ethyl)-5′-(pyridin-4-ylcarbamoyl)-biphenyl-3-carboxylic acid 2-pyridin-2-yl-ethyl ester], the IC50 is < 0.1 µM.

For the compound `CC(N)c1ccc(C(=O)Nc2ccncc2)cc1-c1cccc(C(=O)OCC(=O)c2ccc(Br)cc2)c1` (centres unmarked) [Compound 96, 2′-(1-Amino-ethyl)-5′-(pyridin-4-ylcarbamoyl)-biphenyl-3-carboxylic acid 2-(4-bromo-phenyl)-2-oxo-ethyl ester], the IC50 is < 0.1 µM.

Turning to `CC(N)c1ccc(C(=O)Nc2ccncc2)cc1-c1cccc(C(=O)OCc2ccc(Br)cc2)c1` (centres unmarked) [Compound 84, 2′-(1-Amino-ethyl)-5′-(pyridin-4-ylcarbamoyl)-biphenyl-3-carboxylic acid 4-bromo-benzyl ester], the IC50 is 0.1 to 1 µM.

Take `CCCOC(=O)COc1cccc(-c2cc(C(=O)Nc3ccncc3F)ccc2C(C)N)c1` (centres unmarked) [Compound 141, [2′-(1-Amino-ethyl)-5′-(3-fluoro-pyridin-4-ylcarbamoyl)-biphenyl-3-yloxy]-acetic acid propyl ester]: the IC50 was in the range of 0.1 to 1 µM.

Take `CC(N)c1ccc(C(=O)Nc2ccncc2)cc1-c1cccc(C(=O)Oc2ccc(F)cc2)c1` (centres unmarked) [Compound 72, 2′-(1-Amino-ethyl)-5′-(pyridin-4-ylcarbamoyl)-biphenyl-3-carboxylic acid 4-fluoro-phenyl ester]: the IC50 was < 0.1 µM.

In the case of `CC(C)COC(=O)c1cccc(-c2cc(C(=O)Nc3ccncc3)ccc2C(C)N)c1` (centres unmarked) [Compound 40, 2′-(1-Amino-ethyl)-5′-(pyridin-4-ylcarbamoyl)-biphenyl-3-carboxylic acid isobutyl ester], the IC50 is < 0.1 µM.

Take `CCCCCCCCCCCCCCCCOC(=O)c1cccc(-c2cc(C(=O)Nc3ccncc3)ccc2C(C)N)c1` (centres unmarked) [Compound 24, 2′-(1-Amino-ethyl)-5′-(pyridin-4-ylcarbamoyl)-biphenyl-3-carboxylic acid hexadecyl ester]: the IC50 was in the range of 1 to 10 µM.

Turning to `CC(N)c1ccc(C(=O)Nc2ccncc2)cc1-c1cccc(C(=O)OCCc2ccccc2)c1` (centres unmarked) [Compound 87, 2′-(1-Amino-ethyl)-5′-(pyridin-4-ylcarbamoyl)-biphenyl-3-carboxylic acid phenethyl ester], the IC50 fell in the range of 0.1 to 1 µM.

Consider `CC(N)c1ccc(C(=O)Nc2ccncc2)cc1-c1cccc(C(=O)SC(C)(C)C)c1` (centres unmarked) [Compound 101, 2′-(1-Amino-ethyl)-5′-(pyridin-4-ylcarbamoyl)-biphenyl-3-carbothioic acid S-tert-butyl ester], for which the IC50 is < 0.1 µM.

Take `CC(N)c1ccc(C(=O)Nc2ccncc2)cc1-c1cccc(C(=O)OCC2CC2)c1` (centres unmarked) [Compound 36, 2′-(1-Amino-ethyl)-5′-(pyridin-4-ylcarbamoyl)-biphenyl-3-carboxylic acid cyclopropylmethyl ester]: the half-maximal inhibitory concentration (IC50) was < 0.1 µM.

Turning to `COC(=O)c1cccc(-c2cc(C(=O)Nc3ccncc3)ccc2C(C)N)c1` (centres unmarked) [Compound 4, 2′-(1-Amino-ethyl)-5′-(pyridin-4-ylcarbamoyl)-biphenyl-3-carboxylic acid methyl ester], the IC50 is < 0.1 µM.

As for `CC(N)c1ccc(C(=O)Nc2ccncc2)cc1-c1cccc(C(=O)OCC2COc3ccccc3O2)c1` (centres unmarked) [Compound 56, 2′-(1-Amino-ethyl)-5′-(pyridin-4-ylcarbamoyl)-biphenyl-3-carboxylic acid 2,3-dihydro-benzo[1,4]dioxin-2-ylmethyl ester], the IC50 was in the range of 0.1 to 1 µM.

In the case of `CC(N)c1ccc(C(=O)Nc2ccncc2)cc1-c1cccc(C(=O)OCC(F)(F)F)c1` (centres unmarked) [Compound 63, 2′-(1-Amino-ethyl)-5′-(pyridin-4-ylcarbamoyl)-biphenyl-3-carboxylic acid 2,2,2-trifluoro-ethyl ester], the 50% inhibitory concentration (IC50) fell in the range of 0.1 to 1 µM.

As for `CCCCCCCCCCCCCOC(=O)c1cccc(-c2cc(C(=O)Nc3ccncc3)ccc2C(C)N)c1` (centres unmarked) [Compound 23, 2′-(1-Amino-ethyl)-5′-(pyridin-4-ylcarbamoyl)-biphenyl-3-carboxylic acid tridecyl ester], the IC50 lay within 1 to 10 µM.

On to `CC(N)c1ccc(C(=O)Nc2ccncc2)cc1-c1cccc(NC(=O)CC2CC(=O)Oc3ccccc32)c1` (centres unmarked) [Compound 155, 6-(1-Amino-ethyl)-3′-[2-(2-oxo-chroman-4-yl)-acetylamino]-biphenyl-3-carboxylic acid pyridin-4-ylamide], for which the IC50 was < 0.1 µM.

In the case of `CCCCCCCCOC(=O)c1cccc(-c2cc(C(=O)Nc3ccncc3)ccc2C(C)N)c1` (centres unmarked) [Compound 19, 2′-(1-Amino-ethyl)-5′-(pyridin-4-ylcarbamoyl)-biphenyl-3-carboxylic acid octyl ester], the IC50 was 0.1 to 1 µM.

As for `CC(N)c1ccc(C(=O)Nc2ccncc2)cc1-c1cccc(C(=O)Oc2ccc3c(c2)OC(=O)CC3)c1` (centres unmarked) [Compound 176], the IC50 was < 0.1 µM.

Consider `CC(C)OC(=O)c1cccc(-c2cc(C(=O)Nc3ccncc3)ccc2C(C)N)c1` (centres unmarked) [Compound 27, 2′-(1-Amino-ethyl)-5′-(pyridin-4-ylcarbamoyl)-biphenyl-3-carboxylic acid isopropyl ester], for which the IC50 is < 0.1 µM.

For `CC(N)c1ccc(C(=O)Nc2ccncc2)cc1-c1cccc(C(=O)OCc2ccccc2[N+](=O)[O-])c1` (centres unmarked) [Compound 85, 2′-(1-Amino-ethyl)-5′-(pyridin-4-ylcarbamoyl)-biphenyl-3-carboxylic acid 2-nitro-benzyl ester], the IC50 was 0.1 to 1 µM.

On to `Cc1ccc(OC(=O)c2cccc(-c3cc(C(=O)Nc4ccncc4)ccc3C(C)N)c2)cc1` (centres unmarked) [Compound 73, 2′-(1-Amino-ethyl)-5′-(pyridin-4-ylcarbamoyl)-biphenyl-3-carboxylic acid p-tolyl ester], for which the IC50 was < 0.1 µM.

For `CC(N)c1ccc(C(=O)Nc2ccncc2F)cc1-c1cccc(OCCSC2CCOC2=O)c1` (centres unmarked) [Compound 177], the IC50 was in the range of 0.1 to 1 µM.

For the compound `CC(N)c1ccc(C(=O)Nc2ccncc2)cc1-c1cccc(C(=O)OCCCCCl)c1` (centres unmarked) [Compound 69, 2′-(1-Amino-ethyl)-5′-(pyridin-4-ylcarbamoyl)-biphenyl-3-carboxylic acid 4-chloro-butyl ester], the half-maximal inhibitory concentration (IC50) was < 0.1 µM.

Turning to `COc1cccc(OC)c1OC(=O)c1cccc(-c2cc(C(=O)Nc3ccncc3)ccc2C(C)N)c1` (centres unmarked) [Compound 74, 2′-(1-Amino-ethyl)-5′-(pyridin-4-ylcarbamoyl)-biphenyl-3-carboxylic acid 2,6-dimethoxy-phenyl ester], the IC50 is 0.1 to 1 µM.

Take `COc1cc(OC)cc(OC(=O)c2cccc(-c3cc(C(=O)Nc4ccncc4F)ccc3C(C)N)c2)c1` (centres unmarked) [Compound 76, 2′-(1-Amino-ethyl)-5′-(3-fluoro-pyridin-4-ylcarbamoyl)-biphenyl-3-carboxylic acid 3,5-dimethoxy-phenyl ester]: the IC50 was in the range of 0.1 to 1 µM.

For the compound `CC(N)c1ccc(C(=O)Nc2ccncc2)cc1-c1cccc(C(=O)OC2CCCCC2)c1` (centres unmarked) [Compound 34, 2′-(1-Amino-ethyl)-5′-(pyridin-4-ylcarbamoyl)-biphenyl-3-carboxylic acid cyclohexyl ester], the IC50 was < 0.1 µM.

Take `CC(N)c1ccc(C(=O)Nc2ccncc2F)cc1-c1cccc(C(=O)OCCO)c1` (centres unmarked) [Compound 67, 2′-(1-Amino-ethyl)-5′-(3-fluoro-pyridin-4-ylcarbamoyl)-biphenyl-3-carboxylic acid 2-hydroxy-ethyl ester]: the IC50 was < 0.1 µM.

Consider “2′-(1-Amino-ethyl)-5′- (pyridin-4-ylcarbamoyl)- biphenyl-3-carboxylic acid 4-methylsulfanyl-phenyl ester [Compound 86]”, for which the IC50 is < 0.1 µM.

Consider `C=CCCCCCCCCOC(=O)c1cccc(-c2cc(C(=O)Nc3ccncc3)ccc2C(C)N)c1` (centres unmarked) [Compound 25, 2′-(1-Amino-ethyl)-5′-(pyridin-4-ylcarbamoyl)-biphenyl-3-carboxylic acid dec-9-enyl ester], for which the IC50 is 0.1 to 1 µM.

Take `CC(N)c1ccc(C(=O)Nc2ccncc2)cc1-c1cccc(C(=O)NC2CCSC2=O)c1` (centres unmarked) [Compound 112, 6-(1-Amino-ethyl)-biphenyl-3,3′-dicarboxylic acid 3′-[(2-oxo-tetrahydro-thiophen-3-yl)-amide] 3-pyridin-4-ylamide]: the IC50 was < 0.1 µM.

As to `CC(N)c1ccc(C(=O)Nc2ccncc2)cc1-c1cccc(C(=O)OCCc2ccsc2)c1` (centres unmarked) [Compound 92, 2′-(1-Amino-ethyl)-5′-(pyridin-4-ylcarbamoyl)-biphenyl-3-carboxylic acid 2-thiophen-3-yl-ethyl ester], the IC50 lay within 0.1 to 1 µM.

For `CC(N)c1ccc(C(=O)Nc2ccncc2F)cc1-c1cccc(C(=O)OCCF)c1` (centres unmarked) [Compound 61, 2′-(1-Amino-ethyl)-5′-(3-fluoro-pyridin-4-ylcarbamoyl)-biphenyl-3-carboxylic acid 2-fluoro-ethyl ester], the IC50 lay within 0.1 to 1 µM.

As to `CC#CCOC(=O)c1cccc(-c2cc(C(=O)Nc3ccncc3)ccc2C(C)N)c1` (centres unmarked) [Compound 59, 2′-(1-Amino-ethyl)-5′-(pyridin-4-ylcarbamoyl)-biphenyl-3-carboxylic acid but-2-ynyl ester], the IC50 was < 0.1 µM.
